The target of test [1] is human KEAP1 (N-term, residues 321-609) (Homo sapiens, UniProt Q14145). Description: biochemical.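 Note: fluorescence polarization competition assay of Kelch domain binding to NRF2, 12-point 1:3 dilution series from 10 µM, read after 1 h at room temperature, floor 10 nM.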
Protocol: Biological Assays KEAP1 Kelch Fluorescence Polarization (FP) Assay Method
Inhibition of the Kelch domain-NRF2 interaction was determined using a fluorescence polarization-based competition assay in a black 384-well microplate. Compounds were tested at a starting concentration of 10 μM serially diluted 1:3 to generate a 12-point dose response curve on the Biomek FX robot.
After 1 h at room temperature, fluorescence polarization (excitation 470 nm/emission 530 nm) was measured using an Envision plate reader. IC50 values were determined by fitting the data to a four parameter logistic fit using XLfit or XE Runner within ActivityBase.
The subject of test [2] is NQO1 mRNA in BEAS-2B cells. The experiment in a line: Beas2B NQO1 mRNA cell based assay. On the set-up: species or system human. As to conditions: Homo sapiens, BEAS-2B, 24 h, 24 h compound treatment, increase in NQO1 mRNA vs vehicle (0.1% DMSO), read-out: EC50. Summed up:
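BEAS-2B human bronchial epithelial cells exposed to compound for 24 h at 37 °C, 5% CO2. NQO1 mRNA measured by one-step TaqMan RT-qPCR on unpurified lysates, normalized to β-actin; relative expression by ΔΔCT method.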

This is an account of results in patent publication US12098148B2, “Therapeutic compounds” (C4X Discovery Limited, priority 2018, dated 2024).

By pIC50 is commonly meant the IC50 on a negative log10 scale, so that one unit is a factor of ten. Lower therefore signals a large IC50. One may read the pEC50 as the negative decadic logarithm of the EC50, by convention in mol/L.

pEC50, pIC50: −log10 of the molar value.

human KEAP1 (N-term, residues 321-609), sequence (Q14145 321-609): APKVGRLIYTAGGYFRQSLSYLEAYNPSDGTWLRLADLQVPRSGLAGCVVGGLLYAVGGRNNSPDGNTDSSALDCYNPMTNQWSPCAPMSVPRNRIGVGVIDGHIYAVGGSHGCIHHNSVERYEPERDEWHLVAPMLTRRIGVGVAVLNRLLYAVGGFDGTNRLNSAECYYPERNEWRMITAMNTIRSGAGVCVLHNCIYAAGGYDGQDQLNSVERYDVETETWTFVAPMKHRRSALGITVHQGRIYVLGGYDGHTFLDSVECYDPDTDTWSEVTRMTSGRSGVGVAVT

In test [1], `Cn1c(COc2ccc(Cl)c3c2[C@@H](CN2CC4(CC4)CC2=O)N(C(=O)[C@@H]2CCCC[C@]2(C)C(=O)O)CC3)nnc1C1CC1` [Example 184, (1S,2R)-2-((S)-5-chloro-8-((5-cyclopropyl-4-methyl-4H-1,2,4-triazol-3-yl)methoxy)-1-((6-oxo-5-azaspiro[2.4]heptan-5-yl)methyl)-1,2,3,4-tetrahydroisoquinoline-2-carbonyl)-1-methylcyclohexane-1-carboxylic acid] had a pIC50 of 8.54. Moreover, in test [2], the pEC50 is 8.25.

`Cn1cnc(COc2ccc(Cl)c3c2[C@@H](CN2CC4(CC4)CC2=O)N(C(=O)[C@@H]2CCCC[C@]2(C)C(=O)O)CC3)c1` [Example 185, (1S,2R)-2-((S)-5-chloro-8-((1-methyl-1H-imidazol-4-yl)methoxy)-1-((6-oxo-5-azaspiro[2.4]heptan-5-yl)methyl)-1,2,3,4-tetrahydroisoquinoline-2-carbonyl)-1-methylcyclohexane-1-carboxylic acid] gave a negative logarithm of the IC50 (pIC50) in test [1] of 8.21. In test [2], the pEC50 is 7.25.

`C[C@]1(C(=O)O)CCCC[C@H]1C(=O)N1CCc2c(Cl)ccc(OCc3nnc4n3CCCC4)c2[C@H]1CN1CC2(CC2)CC1=O` [Example 186, (1S,2R)-2-((S)-5-chloro-1-((6-oxo-5-azaspiro[2.4]heptan-5-yl)methyl)-8-((5,6,7,8-tetrahydro-[1,2,4]triazolo[4,3-a]pyridin-3-yl)methoxy)-1,2,3,4-tetrahydroisoquinoline-2-carbonyl)-1-methylcyclohexane-1-carboxylic acid] showed a pIC50 in test [1] of 8.25. In test [2], the pEC50 was 8.33.

Take `C[C@]1(C(=O)O)CCCC[C@H]1C(=O)N1CCc2c(Cl)ccc(O[C@H]3CCN(S(C)(=O)=O)C3)c2[C@H]1CN1CC2(CC2)CC1=O` [Example 187, (1S,2R)-2-((S)-5-chloro-8-(((S)-1-(methylsulfonyl)pyrrolidin-3-yl)oxy)-1-((6-oxo-5-azaspiro[2.4]heptan-5-yl)methyl)-1,2,3,4-tetrahydroisoquinoline-2-carbonyl)-1-methylcyclohexane-1-carboxylic acid]: in test [1], the pIC50 is 8.22. In addition, the pEC50 in test [2] is 7.37.

`CC(=O)N1CC[C@H](Oc2ccc(Cl)c3c2[C@@H](CN2CC4(CC4)CC2=O)N(C(=O)[C@@H]2CCCC[C@]2(C)C(=O)O)CC3)C1` [Example 188, (1S,2R)-2-((S)-8-(((S)-1-acetylpyrrolidin-3-yl)oxy)-5-chloro-1-((6-oxo-5-azaspiro [2.4]heptan-5-yl)methyl)-1,2,3,4-tetrahydroisoquinoline-2-carbonyl)-1-methylcyclohexane-1-carboxylic acid]: in test [1], the pIC50 is 8.31. Besides, the pEC50 in test [2] is 8.10.

As for `C[C@]1(C(=O)O)CCCC[C@H]1C(=O)N1CCc2c(Cl)ccc(OCc3nnn4c3COCC4)c2[C@H]1CN1CC2(CC2)CC1=O` [Example 189, (1S,2R)-2-((S)-5-chloro-8-((6,7-dihydro-4H-[1,2,3]triazolo[5,1-c][1,4]oxazin-3-yl)methoxy)-1-((6-oxo-5-azaspiro[2.4]heptan-5-yl)methyl)-1,2,3,4-tetrahydroisoquinoline-2-carbonyl)-1-methylcyclohexane-1-carboxylic acid], the pIC50 in test [1] is 8.30. In addition, in test [2], the pEC50 is 9.57.

Take `Cn1nnc(COc2cccc3c2[C@@H](CN2CCCC2=O)N(C(=O)[C@@H]2CCCC[C@]2(C)C(=O)O)CC3)c1C(F)(F)F` [Example 190, (1S,2R)-1-methyl-2-((S)-8-((1-methyl-5-(trifluoromethyl)-1H-1,2,3-triazol-4-yl)methoxy)-1-((2-oxopyrrolidin-1-yl)methyl)-1,2,3,4-tetrahydroisoquinoline-2-carbonyl)cyclohexane-1-carboxylic acid]: the pIC50 in test [1] is 8.25. Further, the pEC50 in test [2] is 8.07.

In the case of `Cn1nnc(COc2ccc(Br)c3c2[C@@H](CN2CCCC2=O)N(C(=O)[C@@H]2CCCC[C@]2(C)C(=O)O)CC3)c1C(F)(F)F` [Example 191, (1S,2R)-2-((S)-5-bromo-8-((1-methyl-5-(trifluoromethyl)-1H-1,2,3-triazol-4-yl)methoxy)-1-((2-oxopyrrolidin-1-yl)methyl)-1,2,3,4-tetrahydroisoquinoline-2-carbonyl)-1-methylcyclohexane-1-carboxylic acid], the pIC50 in test [1] is 8.28. The pEC50 in test [2] is 8.68.

In turn, `C[C@]1(C(=O)O)CCCC[C@H]1C(=O)N1CCc2c(Cl)ccc(OCc3nnn(C4COC4)c3C(F)F)c2[C@H]1CN1CC2(CC2)CC1=O` [Example 192, (1S,2R)-2-((S)-5-chloro-8-((5-(difluoromethyl)-1-(oxetan-3-yl)-1H-1,2,3-triazol-4-yl)methoxy)-1-((6-oxo-5-azaspiro[2.4]heptan-5-yl)methyl)-1,2,3,4-tetrahydroisoquinoline-2-carbonyl)-1-methylcyclohexane-1-carboxylic acid] gave a pIC50 in test [1] of 8.07. For the same molecule, the negative-log EC50 (pEC50) in test [2] is 8.42.

Consider `C[C@@H]1CCC(=O)N1C[C@@H]1c2c(OCc3nnn(C)c3C(F)F)ccc(Cl)c2CCN1C(=O)[C@@H]1CCCC[C@]1(C)C(=O)O` [Example 194, (1S,2R)-2-((S)-5-chloro-8-((5-(difluoromethyl)-1-methyl-1H-1,2,3-triazol-4-yl)methoxy)-1-(((R)-2-methyl-5-oxopyrrolidin-1-yl)methyl)-1,2,3,4-tetrahydroisoquinoline-2-carbonyl)-1-methylcyclohexane-1-carboxylic acid], for which, in test [1], the pIC50 is 8.10. Moreover, the pEC50 in test [2] was 7.92.

In test [1], `C[C@H]1CCC(=O)N1C[C@@H]1c2c(OCc3nnn(C)c3C(F)F)ccc(Cl)c2CCN1C(=O)[C@@H]1CCCC[C@]1(C)C(=O)O` [Example 195, (1S,2R)-2-((S)-5-chloro-8-((5-(difluoromethyl)-1-methyl-1H-1,2,3-triazol-4-yl)methoxy)-1-(((S)-2-methyl-5-oxopyrrolidin-1-yl)methyl)-1,2,3,4-tetrahydroisoquinoline-2-carbonyl)-1-methylcyclohexane-1-carboxylic acid] had a pIC50 of 7.89. Further, the pEC50 in test [2] is 8.17.

As to `C[C@]1(C(=O)O)CCCC[C@H]1C(=O)N1CCc2c(Cl)ccc(OCc3nnn4c3CCCC4)c2[C@H]1CN1CCOCC1=O` [Example 196], the pIC50 in test [1] is 8.25. Also, the pEC50 in test [2] was 9.01.

In turn, `Cn1nnc(COc2ccc(Br)c3c2[C@@H](CN2CC4(CC4)CC2=O)N(C(=O)[C@@H]2CCCC[C@]2(C)C(=O)O)CC3)c1C(F)F` [Example 198, (1S,2R)-2-((S)-5-bromo-8-((5-(difluoromethyl)-1-methyl-1H-1,2,3-triazol-4-yl)methoxy)-1-((6-oxo-5-azaspiro [2.4]heptan-5-yl)methyl)-1,2,3,4-tetrahydroisoquinoline-2-carbonyl)-1-methylcyclohexane-1-carboxylic acid] gave a pIC50 in test [1] of 8.28. The pEC50 in test [2] was 9.62.

`Cn1nnc(COc2ccc(Cl)c3c2[C@@H](CN2CC4(CC4)CC2=O)N(C(=O)[C@@H]2CCCC[C@]2(C)C(=O)O)CC3)c1C1COC1` [Example 199, (1S,2R)-2-((S)-5-chloro-8-((1-methyl-5-(oxetan-3-yl)-1H-1,2,3-triazol-4-yl)methoxy)-1-((6-oxo-5-azaspiro [2.4]heptan-5-yl)methyl)-1,2,3,4-tetrahydroisoquinoline-2-carbonyl)-1-methylcyclohexane-1-carboxylic acid]: the pIC50 in test [1] is 8.28. Further, the pEC50 in test [2] is 9.47.

In turn, `Cn1nnc(COc2ccc(Cl)c3c2[C@@H](CN2CCOCC2=O)N(C(=O)[C@@H]2CCCC[C@]2(C)C(=O)O)CC3)c1C(F)F` [Example 200, (1S,2R)-2-((S)-5-chloro-8-((5-(difluoromethyl)-1-methyl-1H-1,2,3-triazol-4-yl)methoxy)-1-((3-oxomorpholino)methyl)-1,2,3,4-tetrahydroisoquinoline-2-carbonyl)-1-methylcyclohexane-1-carboxylic acid] gave a pIC50 in test [1] of 8.29. In addition, the pEC50 in test [2] is 8.92.

In test [1], `Cn1nnc(COc2ccc(Cl)c3c2[C@@H](CN2CC4(CC4)CC2=O)N(C(=O)[C@@H]2CC=CC[C@]2(C)C(=O)O)CC3)c1C(F)F` [Example 201, (1S,6R)-6-((S)-5-chloro-8-((5-(difluoromethyl)-1-methyl-1H-1,2,3-triazol-4-yl)methoxy)-1-((6-oxo-5-azaspiro[2.4]heptan-5-yl)methyl)-1,2,3,4-tetrahydroisoquinoline-2-carbonyl)-1-methylcyclohex-3-ene-1-carboxylic acid] gave a negative logarithm of the IC50 (pIC50) of 8.48. Besides, the pEC50 in test [2] is 9.48.

`Cn1nnc(COc2c(F)cc(Cl)c3c2[C@@H](CN2CC4(CC4)CC2=O)N(C(=O)[C@@H]2CCCC[C@]2(C)C(=O)O)CC3)c1C(F)F` [Example 203, (1S,2R)-2-((S)-5-chloro-8-((5-(difluoromethyl)-1-methyl-1H-1,2,3-triazol-4-yl)methoxy)-7-fluoro-1-((6-oxo-5-azaspiro[2.4]heptan-5-yl)methyl)-1,2,3,4-tetrahydroisoquinoline-2-carbonyl)-1-methylcyclohexane-1-carboxylic acid] gave a pIC50 in test [1] of 8.21. Also, the pEC50 in test [2] is 9.40.

Turning to `C[C@]1(C(=O)O)CCCC[C@H]1C(=O)N1CCc2c(Cl)ccc(OCc3ncsc3C(F)F)c2[C@H]1CN1CC2(CC2)CC1=O` [Example 204, (1S,2R)-2-((S)-5-chloro-8-((5-(difluoromethyl)thiazol-4-yl)methoxy)-1-((6-oxo-5-azaspiro[2.4]heptan-5-yl)methyl)-1,2,3,4-tetrahydroisoquinoline-2-carbonyl)-1-methylcyclohexane-1-carboxylic acid], the pIC50 in test [1] was 8.16. Also, the pEC50 in test [2] is 7.89.
